In brackets after ≈: the same amount, converted by molar mass. Like-named read-outs stand apart in the source and are kept apart here.
Experiments:
[1] = test system: P. mirabilis ATCC 7002 and tolC::Tn5-kan2 EN1490; assay: MIC, P. mirabilis laboratory strains; format: cell-based; conditions: Proteus mirabilis
Procedure: Minimum inhibitory concentration (MIC) values were determined according to the Clinical Laboratory Standards Institute guidelines. Frequency of resistance was determined by plating ~5 × 10^8 bacterial cells on agar-solidified media plates containing test compound at concentrations corresponding to four times the measured solid-media MIC of the strains. Colonies were counted after 24 h, restreaked onto media containing the same concentration of compound, and the MIC remeasured against the assayed compound. Genomic DNA from isolated clones was sequenced by paired-end sequencing on an Illumina MiSeq device. Complete experimental details available in SI Appendix. […]
Minimum inhibitory concentration (MIC) determination. Broth microdilution and agar dilution MIC assays were conducted according to CLSI guidelines (M07-2012). Appropriate inoculation suspension density was assessed using a Sensititre Nephelometer with a Sensititre 0.5 […]
McFarland Standard. […]
Strain construction. The efflux-defective P. mirabilis strain EN1490 was constructed using EZ-Tn5 <KAN-2> Transposome mutagenesis with TypeOne Restriction Inhibitor. Approximately 3000 independent clones were screened for increased susceptibility to chloramphenicol (8 mg/L), yielding 2 independent clones with insertions in the gene tolC. […]

[2] = test system: K. pneumoniae SSI #3010 (EN124); assay: Neutropenic mouse peritonitis model, K. pneumoniae; format: in vivo, mice; conditions: single sc dose; for ED50: Klebsiella pneumoniae; for ED50 / 1-log effective dose, blood, K. pneumoniae / 2-log effective dose, blood, K. pneumoniae / 1-log effective dose, peritoneal fluid, K. pneumoniae / 2-log effective dose, peritoneal fluid, K. pneumoniae: modeled efficacy curves; for Efficacy against K. pneumoniae compared with ciprofloxacin (13 mg/kg): doses ≥50 mg/kg, mouse peritonitis
Procedure: PK and safety studies were done the Latvian Institute for Organic Synthesis (Riga, Latvia) and in vivo efficacy studies were done at Statens Serum Institut (Copenhagen, Denmark). Assays were done in accordance with the relevant permits at the respective sites (SI Appendix). For PK studies, plasma samples were taken from mice dosed subcutaneously and the samples were analyzed by UPLC/MS/MS. For in vivo efficacy studies, neutropenic mice were infected intraperitoneally with 10^6 bacteria and treated with subcutaneously with test compounds 1 h after infection. The mice were euthanized 4 h after treatment and serially diluted samples of blood and peritoneal fluid were plated onto blood agar plates. Complete experimental details available in SI Appendix.
Lantmännen) and water. The experimental procedures were performed in accordance with the guidelines of the European Community and local laws and policies (Directive 2010/63/EU), and all of the procedures were approved by Food and Veterinary Service, Riga, Latvia. […]
Bacterial strains and inoculum. E. coli EC 106-09 (EN122) and K. pneumoniae SSI #3010 (EN124) are clinical isolates from Denmark. Bacterial suspensions for inoculation of mice were prepared […]
at room temperature from fresh overnight cultures on 5% blood agar plates produced by SSI diagnostica (Copenhagen Denmark). The inoculum was prepared immediately before inoculation by suspending colonies in sterile 0.9% saline to an optical density of 0.13 at 540 nm, giving a density of 10^8 CFU/ml and further diluted in 0.9% saline to 2 x 10^6 CFU/ml before injecting into the mice. For each experiment, the size of the inoculum was determined by making ten-fold dilutions in 0.9% saline, of which 20 µl was plated on 5% blood agar plates with subsequent counting of colonies after incubation overnight at 35°C in ambient air.
Mice. Outbred female CD-1 mice 26-30 gram (Envigo, Netherlands) were housed at the animal facility at Statens Serum Institut. The temperature was 22 °C +/- 2 °C and the humidity was 55 +/- 10%. The mice were housed in individually ventilated type 3 macrolone cages with bedding from Tapvei. The air changes per hour were approximately 8-12 times (70-73 times per hours inside cages), and light/dark period was in 12-hours interval of 6 a.m.- 6 p.m./6 p.m – 6 a.m.
The mice had ad libitum access to domestic quality drinking water and food Teklad Global diet 2916C-Envigo) and occasionally peanuts and sunflower seeds (Køge Korn A/S). Further, the animals were offered Enviro-Dri nesting material and cardboard houses (Bio-serv).
Mouse peritonitis model. The mice were rendered neutropenic by injecting 0.5 mL cyclophosphamide solution, 200 mg/kg intraperitoneally at 4 days and 100 mg/kg at 1 day prior to inoculation. 1 h before inoculation, mice were treated orally with […] Nurofen (20 mg ibuprofen/mL corresponding to approximately 30 mg/kg) as a pain relief. Inoculation was performed by intraperitoneal injection of 0.5 ml of the bacterial suspension containing log 6
CFU. The mice were treated subcutaneously with 0.25 – 0.30 mL based on weight, in the neck region with a single dose of compound at 1 hour post inoculation. Mice were monitored for clinical signs of discomfort. 4 h after treatment the mice were anesthetized and blood was collected by heart puncture into EDTA tubes and thereafter mice were euthanized by cervical dislocation and peritoneal washes were performed by injecting 2 ml of sterile saline intraperitoneally, followed by gentle massage of the abdomen and opening the peritoneum to collect fluid. Full blood and peritoneal fluids were serially diluted (ten-fold dilutions) and 20 µl was plated on blood agar plates produced at the SSI diagniostica (Copenhagen, Denmark) with subsequent counting of colonies after incubation overnight at 35°C in ambient. All animal experiments were approved by the National Committee of Animal Ethics – Animal Experiment Inspectorate under the Danish Ministry of Justice.
Statistical analyses. […]

[3] = ATCC7002, read-out: MIC P. mirabilis ATCC 7002
[4] = ATCC7002, read-out: MIC P. mirabilis EN1490
[5] = blood, read-out: ED50, blood, K. pneumoniae
[6] = peritoneal fluid, read-out: ED50, peritoneal fluid, K. pneumoniae

Row | SMILES | MIC [1, 3] [µg/mL] | MIC [1, 4] [µg/mL] | ED50 [2, 5] [mg/kg] | ED50 [2, 6] [mg/kg] | Efficacy against K. pneumoniae compared with ciprofloxacin (13 mg/kg) [2] | 1-log effective dose, blood, K. pneumoniae ([2]; blood) [mg/kg] | 2-log effective dose, blood, K. pneumoniae ([2]; blood) [mg/kg] | 1-log effective dose, peritoneal fluid, K. pneumoniae ([2]; peritoneal fluid) [mg/kg] | 2-log effective dose, peritoneal fluid, K. pneumoniae ([2]; peritoneal fluid) [mg/kg]
1 | Cc1cc(C#N)nc(N2CCN(S(=O)(=O)c3ccc(NC(=O)c4cc(CNCCCN)ccc4N(C)S(C)(=O)=O)cc3)CC2)n1.Cl.Cl [EBL-3599] | > 64 | 4 | 20.2 | 19.8 | efficacy similar to ciprofloxacin | 20.2 | 28 | 20.4 | 30.7
2 | Cc1cc(C#N)nc(N2CCN(S(=O)(=O)c3ccc(NC(=O)c4cc(CN5CC(CN)C5)ccc4N(C)S(C)(=O)=O)cc3)CC2)n1 [EBL-3647] | > 64 | 16 (≈ 24 µM) | 21 | 21 | efficacy similar to ciprofloxacin | 21 | 27 | 22.8 | 37.3
